The text below walks through data of patent US20190134234A1, “COMPOSITION FOR STABILIZING RADIOCHEMICAL PURITY OF [18F] FLUORO-DOPA AND METHOD FOR PREPARING SAME” (CI-CO HEALTHCARE CO., LTD., priority 2015, published 2019).

A short description of series [1]: Radiochemical purity of [18F]FDG by TLC after pH adjustment, standing at room temperature. To be noted: for radiochemical purity: room temperature. The series is classed as physicochemical. As to the method:
[^18F]FDG (radiochemical purity 100%) was prepared according to known procedure (Ind. J. Appl. Radiatl Isot 35 1984 985-986) was formulated with physiological saline and hydrogen ion concentration was adjusted to 6, 7, and 8, respectively, using sodium bicarbonate, and then was allowed to stand at room temperature for 0, 2, 4, and 6 hours.

Series [2] is described as follows: Radiochemical purity by HPLC after neutralization with sodium bicarbonate, standing at room temperature. To be noted: for radiochemical purity: room temperature; for impurities generated (HPLC chromatogram): pH 7, room temperature, no ethanol. The series is classed as physicochemical. Here is the method:
[^18F]fluoro-dopa (radiochemical purity 100%) was prepared according to known procedures (see Appl. Radiat. Isot. 672009 1650-1653), the initial hydrogen ion concentration of the prepared [^18F]fluoro-dopa (radiochemical purity 100%) is 4. This was formulated into physiological saline, and hydrogen ion concentration was adjusted to 6, 7, and 8, respectively, using sodium bicarbonate. Each time the solution was allowed to stand at room temperature (or at room temperature) for 0, 2, 4 and 6 hours, high-performance liquid chromatograph (HPLC) was used to measure the radiochemical purity. […]
[^18F]fluoro-dopa (radiochemical purity 100%) was prepared according to known procedures (see: Appl. Radiat. Isot. 67 2009 1650-1653), and the hydrogen ion concentration was adjusted to 7 (pH 7) using sodium bicarbonate after preparation with physiological saline. The determination of whether the radiochemical purity was generated was confirmed by measurement using HPLC (high-performance liquid chromatography) after 2 and 6 hours at room temperature. The results are illustrated in FIGS. 1 and 2. […]

The conditions of series [3]: IASOdopa SPC; cited from earlier work.

As for `OC[C@H]1OC(O)[C@H]([18F])[C@@H](O)[C@@H]1O` (some centres unmarked) [[^18F]FDG], the radiochemical purity in series [1] (pH 6, 0 hour) amounted to 99.07%; in series [1] (pH 6, 2 hours) it was 98.04%; in series [1] (pH 6, 4 hours), 98.12%; in series [1] (pH 6, 6 hours), 99.12%; in series [1] (pH 7, 0 hour) it was 99.23%; in series [1] (pH 7, 2 hours), 100%. In addition, the radiochemical purity is recorded as 99.46% in series [1] (pH 7, 4 hours); 98.12% in series [1] (pH 7, 6 hours); 99.78% in series [1] (pH 8, 0 hour); 99.01% in series [1] (pH 8, 2 hours); 99.89% in series [1] (pH 8, 4 hours); 100% in series [1] (pH 8, 6 hours). In series [1] (pH 6 to 8, physiological saline, up to 6 hours), the “radiochemical purity over time at a neutral pH” value was at least 90%.

Turning to `Cc1cn([C@H]2C[C@H]([18F])[C@@H](CO)O2)c(=O)[nH]c1=O` [[^18F]FLT], the radiochemical purity in series [2] (pH 6, 0 hour, HPLC) amounted to 100%; in series [2] (pH 6, 2 hours, HPLC), 100%; in series [2] (pH 6, 4 hours, HPLC), 99.78%; in series [2] (pH 6, 6 hours, HPLC), 100%; in series [2] (pH 7, 0 hour, HPLC) it was 100%; in series [2] (pH 7, 2 hours, HPLC) it was 100%. Moreover, the radiochemical purity came out at 100% in series [2] (pH 7, 4 hours, HPLC); 100% in series [2] (pH 7, 6 hours, HPLC); 99.15% in series [2] (pH 8, 0 hour, HPLC); 100% in series [2] (pH 8, 2 hours, HPLC); 99.29% in series [2] (pH 8, 4 hours, HPLC); 100% in series [2] (pH 8, 6 hours, HPLC). The “radiochemical purity over time at a neutral pH” value in series [2] (pH 6 to 8, physiological saline, up to 6 hours, HPLC) was at least 90%.

For the compound `N[C@@H](Cc1cc(O)c(O)cc1[18F])C(=O)O` [[^18F]fluoro-dopa, L-6-[^18F]FLUORO-3,4-DIHYDROXYPHENYLALANINE], the radiochemical purity in series [2] (pH 6, 0 hour, HPLC) is listed as 100%; in series [2] (pH 6, 2 hours, HPLC), 96.66%; in series [2] (pH 6, 4 hours, HPLC), 92.6%; in series [2] (pH 6, 6 hours, HPLC), 87.95%; in series [2] (pH 7, 0 hour, HPLC), 100%; in series [2] (pH 7, 2 hours, HPLC) it was 92.02%. In addition, the radiochemical purity in series [2] (pH 7, 4 hours, HPLC) amounted to 78.67%; in series [2] (pH 7, 6 hours, HPLC), 63.81%; in series [2] (pH 8, 0 hour, HPLC) it was 99.73%; in series [2] (pH 8, 2 hours, HPLC), 91.14%; in series [2] (pH 8, 4 hours, HPLC), 76.58%; in series [2] (pH 8, 6 hours, HPLC) it was 51.78%. The “impurities generated (HPLC chromatogram)” value in series [2] (2 hours after neutralization) is “the first impurity (IMP 1) was generated”; in series [2] (6 hours after neutralization) it was “the first impurity (IMP 1) and the second purity (IMP 2) were generated”. For the same compound, the “pH at which it is oxidized” value in series [3] is given as at least 4.5.
